# Results reported in ChEMBL document CHEMBL3045517, “Tolerance of tomato, pepper and potato to pre-emergence applications of saflufenacil” (Crop Prot, 2012).
# How the values were obtained:
# Format in all cases: organism-based
# Solanum tuberosum [1] = assay: Toxicity against Solanum tuberosum Superior (potato) assessed as dose required to cause 5% yield loss applied within 3 days after seeding measured at maturity of the crop; conditions: in vivo, 72 h
# Capsicum annuum [2] = assay: Toxicity against Capsicum annuum Socrates (pepper) assessed as dose required to cause 5% yield loss applied within 3 days prior to transplantation measured at maturity of the crop; conditions: in vivo, 72 h
# Solanum lycopersicum [3] = assay: Toxicity against Solanum lycopersicum (tomato) H9909 assessed as dose required to cause 5% yield loss applied within 3 days prior to transplantation measured at maturity of the crop; conditions: in vivo, 72 h
# Solanum tuberosum [4] = assay: Toxicity against Solanum tuberosum Superior (potato) assessed as decrease in marketable yield at 100 g ai/ha preemergence application measured at maturity of the crop; design: scale not given: the % may be the effect or the level left; conditions: in vivo, other
# Capsicum annuum [5] = assay: Toxicity against Capsicum annuum Socrates (pepper) assessed as decrease in marketable yield at 100 g ai/ha pretransplant application measured at maturity of the crop; design: scale not given: the % may be the effect or the level left; conditions: in vivo, other
# Solanum lycopersicum [6] = assay: Toxicity against Solanum lycopersicum (tomato) H9909 assessed as decrease in marketable yield at 100 g ai/ha pretransplant application measured at maturity of the crop; design: scale not given: the % may be the effect or the level left; conditions: in vivo, other
# Solanum tuberosum [7] = assay: Toxicity against Solanum tuberosum Superior (potato) assessed as dose required to cause 5% growth reduction applied within 3 days after seeding measured at 28 days after crop emergence; conditions: in vivo
# Capsicum annuum [8] = assay: Toxicity against Capsicum annuum Socrates (pepper) assessed as dose required to cause 5% growth reduction applied within 3 days prior to transplantation measured at 28 days after crop transplanting; conditions: in vivo, 672 h
# Solanum lycopersicum [9] = assay: Toxicity against Solanum lycopersicum (tomato) H9909 assessed as dose required to cause 5% growth reduction applied within 3 days prior to transplantation measured at 28 days after crop transplanting; conditions: in vivo, 672 h
# Solanum tuberosum [10] = assay: Toxicity against Solanum tuberosum Superior (potato) assessed as reduction in plant dry weight at 100 g ai/ha preemergence application measured at 28 days after crop emergence; design: scale not given: the % may be the effect or the level left; conditions: in vivo, other, 672 h
# Capsicum annuum [11] = assay: Toxicity against Capsicum annuum Socrates (pepper) assessed as reduction in plant dry weight at 100 g ai/ha pretransplant application measured at 28 days after crop transplanting; design: scale not given: the % may be the effect or the level left; conditions: in vivo, other, 672 h
# Solanum lycopersicum [12] = assay: Toxicity against Solanum lycopersicum (tomato) H9909 assessed as reduction in plant dry weight at 100 g ai/ha pretransplant application measured at 28 days after crop transplanting; design: scale not given: the % may be the effect or the level left; conditions: in vivo, other, 672 h
# Solanum tuberosum [13] = assay: Toxicity against Solanum tuberosum Superior (potato) assessed as dose required to cause 5% visible injury applied within 3 days after seeding measured at 28 days after crop emergence; conditions: in vivo, 672 h
# Capsicum annuum [14] = assay: Toxicity against Capsicum annuum Socrates (pepper) assessed as dose required to cause 5% visible injury applied within 3 days prior to transplantation measured at 28 days after crop transplanting; conditions: in vivo, 672 h
# Solanum lycopersicum [15] = assay: Toxicity against Solanum lycopersicum (tomato) H9909 assessed as dose required to cause 5% visible injury applied within 3 days prior to transplantation measured at 28 days after crop transplanting; conditions: in vivo, 672 h
# Solanum tuberosum [16] = assay: Toxicity against Solanum tuberosum Superior (potato) assessed as decrease in crop injury at 100 g ai/ha preemergence application measured at 28 days after crop emergence; design: scale not given: the % may be the effect or the level left; conditions: in vivo, other, 672 h
# Capsicum annuum [17] = assay: Toxicity against Capsicum annuum Socrates (pepper) assessed as decrease in crop injury at 100 g ai/ha pretransplant application measured at 28 days after crop transplanting; design: scale not given: the % may be the effect or the level left; conditions: in vivo, other, 672 h
# Solanum lycopersicum [18] = assay: Toxicity against Solanum lycopersicum (tomato) H9909 assessed as decrease in crop injury at 100 g ai/ha pretransplant application measured at 28 days after crop transplanting; design: scale not given: the % may be the effect or the level left; conditions: in vivo, other, 672 h
# Capsicum annuum [19] = assay: Toxicity against Capsicum annuum (pepper) assessed as crop injury at 420 g ai/ha pretransplant application; conditions: in vivo, other
SMILES,Activity (Solanum tuberosum [1]) [gAi/ha],Activity (Capsicum annuum [2]) [gAi/ha],Activity (Solanum lycopersicum [3]) [gAi/ha],Activity (Solanum tuberosum [4]) [%],Activity (Capsicum annuum [5]) [%],Activity (Solanum lycopersicum [6]) [%],Activity (Solanum tuberosum [7]) [gAi/ha],Activity (Capsicum annuum [8]) [gAi/ha],Activity (Solanum lycopersicum [9]) [gAi/ha],Activity (Solanum tuberosum [10]) [%],Activity (Capsicum annuum [11]) [%],Activity (Solanum lycopersicum [12]) [%],Activity (Solanum tuberosum [13]) [gAi/ha],Activity (Capsicum annuum [14]) [gAi/ha],Activity (Solanum lycopersicum [15]) [gAi/ha],Activity (Solanum tuberosum [16]) [%],Activity (Capsicum annuum [17]) [%],Activity (Solanum lycopersicum [18]) [%],Activity (Capsicum annuum [19]) [%]
CC(C)N(C)S(=O)(=O)NC(=O)c1cc(-n2c(=O)cc(C(F)(F)F)n(C)c2=O)c(F)cc1Cl [SAFLUFENACIL],19.7,7,8.8,18,69,57,15.5,5.6,6.7,30,82,73,105,15.4,17.5,5,32,29,
Cc1nn(-c2cc(NS(C)(=O)=O)c(Cl)cc2Cl)c(=O)n1C(F)F [SULFENTRAZONE],,,,,,,,,,,,,,,,,,,65
